These results are taken from ChEMBL document CHEMBL5291721, “A preclinical secondary pharmacology resource illuminates target-adverse drug reaction associations of marketed drugs” (Nat Commun, 2023).

In experiment [1] the target is T1, 5-hydroxytryptamine receptor 2C (Homo sapiens, UniProt P28335).
T1 sequence (P28335 whole entry): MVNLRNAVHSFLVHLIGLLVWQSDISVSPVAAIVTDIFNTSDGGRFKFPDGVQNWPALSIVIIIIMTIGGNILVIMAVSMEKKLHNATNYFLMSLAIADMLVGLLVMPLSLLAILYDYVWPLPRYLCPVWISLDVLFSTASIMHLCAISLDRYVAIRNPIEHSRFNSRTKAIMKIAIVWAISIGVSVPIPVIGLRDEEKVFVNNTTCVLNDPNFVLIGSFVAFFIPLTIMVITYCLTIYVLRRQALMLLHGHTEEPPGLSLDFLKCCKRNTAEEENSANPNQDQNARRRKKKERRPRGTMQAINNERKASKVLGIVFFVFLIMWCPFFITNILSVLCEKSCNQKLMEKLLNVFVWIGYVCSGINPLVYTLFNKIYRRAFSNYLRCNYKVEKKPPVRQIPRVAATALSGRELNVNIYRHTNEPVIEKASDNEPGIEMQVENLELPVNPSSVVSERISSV

The target of experiment [2] is cGMP-inhibited 3',5'-cyclic phosphodiesterase 3A (Homo sapiens, UniProt Q14432). In kind it is functional.
Chain of cGMP-inhibited 3',5'-cyclic phosphodiesterase 3A (Q14432 whole entry): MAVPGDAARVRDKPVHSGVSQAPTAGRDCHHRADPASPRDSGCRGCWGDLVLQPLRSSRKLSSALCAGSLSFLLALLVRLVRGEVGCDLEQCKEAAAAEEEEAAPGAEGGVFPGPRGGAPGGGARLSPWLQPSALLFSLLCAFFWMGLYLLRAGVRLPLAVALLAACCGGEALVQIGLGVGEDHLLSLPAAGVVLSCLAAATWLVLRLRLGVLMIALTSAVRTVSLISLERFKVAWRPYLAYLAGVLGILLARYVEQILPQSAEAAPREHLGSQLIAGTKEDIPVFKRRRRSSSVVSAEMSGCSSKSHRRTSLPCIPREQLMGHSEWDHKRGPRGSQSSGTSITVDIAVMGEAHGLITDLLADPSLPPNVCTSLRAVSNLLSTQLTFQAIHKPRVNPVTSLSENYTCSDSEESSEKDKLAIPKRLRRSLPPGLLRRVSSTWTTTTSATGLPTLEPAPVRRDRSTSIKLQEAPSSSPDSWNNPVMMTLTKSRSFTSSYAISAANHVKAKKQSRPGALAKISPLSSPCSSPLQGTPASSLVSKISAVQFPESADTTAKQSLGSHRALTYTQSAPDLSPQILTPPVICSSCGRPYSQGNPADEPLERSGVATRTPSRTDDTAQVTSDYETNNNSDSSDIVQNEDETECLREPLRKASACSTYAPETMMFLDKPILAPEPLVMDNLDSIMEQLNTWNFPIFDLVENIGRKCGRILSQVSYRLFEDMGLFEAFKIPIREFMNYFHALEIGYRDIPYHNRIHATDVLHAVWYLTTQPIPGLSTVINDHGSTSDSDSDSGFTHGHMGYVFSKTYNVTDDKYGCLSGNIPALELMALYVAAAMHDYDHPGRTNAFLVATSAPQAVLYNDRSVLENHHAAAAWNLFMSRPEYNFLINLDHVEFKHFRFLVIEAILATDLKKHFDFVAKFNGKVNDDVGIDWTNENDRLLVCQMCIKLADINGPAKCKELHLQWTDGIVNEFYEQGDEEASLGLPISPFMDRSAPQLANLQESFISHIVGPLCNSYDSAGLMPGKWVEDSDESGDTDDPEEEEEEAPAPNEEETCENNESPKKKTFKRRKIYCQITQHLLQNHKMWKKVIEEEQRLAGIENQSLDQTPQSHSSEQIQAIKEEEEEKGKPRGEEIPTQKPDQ
The next experiment addresses Bile salt export pump (Homo sapiens, UniProt O95342). The experiment is classed as functional.
Another experiment concerns the target Motilin receptor (Homo sapiens, UniProt O43193).
In experiment [3] the target is Delta-type opioid receptor (Homo sapiens, UniProt P41143).
Chain of Delta-type opioid receptor (P41143 whole entry): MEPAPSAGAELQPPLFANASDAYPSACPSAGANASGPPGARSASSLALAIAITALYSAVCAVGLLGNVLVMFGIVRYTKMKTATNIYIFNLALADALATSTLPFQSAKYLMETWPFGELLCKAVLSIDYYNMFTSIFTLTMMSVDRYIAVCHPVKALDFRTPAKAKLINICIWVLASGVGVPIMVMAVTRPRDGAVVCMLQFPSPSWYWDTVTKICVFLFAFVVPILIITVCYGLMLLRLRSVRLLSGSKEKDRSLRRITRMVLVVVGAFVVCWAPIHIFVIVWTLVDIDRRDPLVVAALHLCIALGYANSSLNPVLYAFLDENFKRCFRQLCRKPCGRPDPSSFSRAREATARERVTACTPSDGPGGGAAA
The target in experiment [4] is 5-hydroxytryptamine receptor 2B (Homo sapiens, UniProt P41595). The experiment is classed as functional, cell-based.
Chain of 5-hydroxytryptamine receptor 2B (P41595 whole entry): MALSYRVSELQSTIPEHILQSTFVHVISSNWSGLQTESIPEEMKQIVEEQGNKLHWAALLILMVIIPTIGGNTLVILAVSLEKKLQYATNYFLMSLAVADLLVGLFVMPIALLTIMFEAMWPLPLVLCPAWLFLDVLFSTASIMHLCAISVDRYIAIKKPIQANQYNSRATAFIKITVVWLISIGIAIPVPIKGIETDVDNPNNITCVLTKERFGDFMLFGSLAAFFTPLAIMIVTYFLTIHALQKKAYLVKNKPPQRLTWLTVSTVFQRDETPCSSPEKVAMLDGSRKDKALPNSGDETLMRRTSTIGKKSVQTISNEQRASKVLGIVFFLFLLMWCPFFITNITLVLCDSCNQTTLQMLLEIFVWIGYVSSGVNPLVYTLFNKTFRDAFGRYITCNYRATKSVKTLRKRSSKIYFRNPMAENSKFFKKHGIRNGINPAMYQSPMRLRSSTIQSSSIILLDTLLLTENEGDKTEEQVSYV
Experiment [5] concerns the target T2, Amine oxidase [flavin-containing] A (Homo sapiens, UniProt P21397).
T2 sequence (P21397 whole entry): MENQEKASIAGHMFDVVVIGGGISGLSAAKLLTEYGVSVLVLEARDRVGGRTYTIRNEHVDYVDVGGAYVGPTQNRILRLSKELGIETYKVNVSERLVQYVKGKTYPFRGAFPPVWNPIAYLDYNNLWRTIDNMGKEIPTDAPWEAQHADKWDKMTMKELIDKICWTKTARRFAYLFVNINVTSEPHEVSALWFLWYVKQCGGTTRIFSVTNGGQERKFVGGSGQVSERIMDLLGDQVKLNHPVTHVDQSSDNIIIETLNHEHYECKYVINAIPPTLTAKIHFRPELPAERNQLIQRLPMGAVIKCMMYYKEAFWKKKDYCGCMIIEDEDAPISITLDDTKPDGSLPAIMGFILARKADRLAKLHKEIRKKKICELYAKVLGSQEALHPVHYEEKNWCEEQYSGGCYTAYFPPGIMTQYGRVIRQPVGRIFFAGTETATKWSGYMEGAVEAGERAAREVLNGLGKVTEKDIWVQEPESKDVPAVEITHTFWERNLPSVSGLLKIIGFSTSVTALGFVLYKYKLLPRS
In kind it is functional.

Experiment [6] deals with Neuronal acetylcholine receptor subunit alpha-4 (Homo sapiens, UniProt P43681).
Chain of Neuronal acetylcholine receptor subunit alpha-4 (P43681 whole entry): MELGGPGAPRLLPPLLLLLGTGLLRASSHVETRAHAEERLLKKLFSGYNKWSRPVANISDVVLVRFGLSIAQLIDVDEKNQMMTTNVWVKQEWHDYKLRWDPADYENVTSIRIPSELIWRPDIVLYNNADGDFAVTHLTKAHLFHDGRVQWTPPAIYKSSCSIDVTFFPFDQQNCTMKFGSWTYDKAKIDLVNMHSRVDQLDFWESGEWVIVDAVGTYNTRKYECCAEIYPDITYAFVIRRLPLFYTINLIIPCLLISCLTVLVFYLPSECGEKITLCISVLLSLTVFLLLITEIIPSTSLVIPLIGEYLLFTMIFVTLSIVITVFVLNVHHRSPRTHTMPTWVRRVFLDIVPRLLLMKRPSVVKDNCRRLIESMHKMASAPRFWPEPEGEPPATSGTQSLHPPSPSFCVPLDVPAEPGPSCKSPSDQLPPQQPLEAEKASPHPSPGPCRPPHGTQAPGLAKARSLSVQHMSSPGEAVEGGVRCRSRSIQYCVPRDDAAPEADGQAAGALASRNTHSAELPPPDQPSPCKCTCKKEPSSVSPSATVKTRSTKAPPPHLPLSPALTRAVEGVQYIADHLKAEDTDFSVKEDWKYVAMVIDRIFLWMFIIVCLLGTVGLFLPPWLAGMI
For the next experiment, the target named is T3, Adenosine receptor A1 (Homo sapiens, UniProt P30542).
T3 sequence (P30542 whole entry): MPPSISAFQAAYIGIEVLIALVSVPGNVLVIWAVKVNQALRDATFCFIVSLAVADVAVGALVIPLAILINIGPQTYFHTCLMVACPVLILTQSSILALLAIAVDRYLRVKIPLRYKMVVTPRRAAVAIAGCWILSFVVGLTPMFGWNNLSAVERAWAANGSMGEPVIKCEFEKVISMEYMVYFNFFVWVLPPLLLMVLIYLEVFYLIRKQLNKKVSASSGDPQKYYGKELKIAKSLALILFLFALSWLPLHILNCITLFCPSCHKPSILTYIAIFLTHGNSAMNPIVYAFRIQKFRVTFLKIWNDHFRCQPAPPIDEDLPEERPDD

Experiment [7] deals with T4, 5-hydroxytryptamine receptor 1A (Homo sapiens, UniProt P08908).
T4 sequence (P08908 whole entry): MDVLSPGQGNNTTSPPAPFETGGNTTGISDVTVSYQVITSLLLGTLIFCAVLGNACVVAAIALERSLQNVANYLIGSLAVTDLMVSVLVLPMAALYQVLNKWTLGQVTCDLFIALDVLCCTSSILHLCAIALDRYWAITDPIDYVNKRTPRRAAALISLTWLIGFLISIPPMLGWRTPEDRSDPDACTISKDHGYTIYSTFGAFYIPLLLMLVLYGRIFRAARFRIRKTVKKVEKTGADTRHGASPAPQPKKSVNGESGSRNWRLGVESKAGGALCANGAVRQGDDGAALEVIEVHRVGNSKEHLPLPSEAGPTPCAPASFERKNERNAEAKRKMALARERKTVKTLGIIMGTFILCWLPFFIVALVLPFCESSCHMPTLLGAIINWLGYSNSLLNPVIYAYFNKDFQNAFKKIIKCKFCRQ
In kind it is functional, cell-based.

The target of experiment [8] is T5, Equilibrative nucleoside transporter 1 (Homo sapiens, UniProt Q99808).
T5 sequence (Q99808 whole entry): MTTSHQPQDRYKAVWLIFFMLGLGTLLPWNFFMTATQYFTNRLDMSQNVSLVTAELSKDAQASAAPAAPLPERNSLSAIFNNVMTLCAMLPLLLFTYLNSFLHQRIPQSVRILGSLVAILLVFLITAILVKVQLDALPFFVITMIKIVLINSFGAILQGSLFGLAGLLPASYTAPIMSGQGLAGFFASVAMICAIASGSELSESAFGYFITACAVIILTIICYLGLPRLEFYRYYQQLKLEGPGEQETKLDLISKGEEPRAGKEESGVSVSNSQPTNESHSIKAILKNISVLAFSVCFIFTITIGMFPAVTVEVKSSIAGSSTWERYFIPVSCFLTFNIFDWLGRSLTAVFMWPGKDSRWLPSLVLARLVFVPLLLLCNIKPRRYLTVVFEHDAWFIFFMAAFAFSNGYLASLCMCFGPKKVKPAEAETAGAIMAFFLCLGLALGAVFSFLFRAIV
Also: assay procedure not described here.

Chain of Motilin receptor (O43193 whole entry): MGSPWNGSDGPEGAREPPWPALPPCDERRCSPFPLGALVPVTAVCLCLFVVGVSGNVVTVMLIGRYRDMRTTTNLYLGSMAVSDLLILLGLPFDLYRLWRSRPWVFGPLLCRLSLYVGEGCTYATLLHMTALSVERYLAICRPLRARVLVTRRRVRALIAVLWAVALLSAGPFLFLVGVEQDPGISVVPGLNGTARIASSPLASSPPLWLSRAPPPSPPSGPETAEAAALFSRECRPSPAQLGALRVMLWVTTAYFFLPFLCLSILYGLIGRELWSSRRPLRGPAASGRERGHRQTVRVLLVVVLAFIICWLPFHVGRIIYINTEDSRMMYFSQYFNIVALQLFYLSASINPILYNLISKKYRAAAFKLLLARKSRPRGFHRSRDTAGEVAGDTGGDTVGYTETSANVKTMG
Chain of Bile salt export pump (O95342 whole entry): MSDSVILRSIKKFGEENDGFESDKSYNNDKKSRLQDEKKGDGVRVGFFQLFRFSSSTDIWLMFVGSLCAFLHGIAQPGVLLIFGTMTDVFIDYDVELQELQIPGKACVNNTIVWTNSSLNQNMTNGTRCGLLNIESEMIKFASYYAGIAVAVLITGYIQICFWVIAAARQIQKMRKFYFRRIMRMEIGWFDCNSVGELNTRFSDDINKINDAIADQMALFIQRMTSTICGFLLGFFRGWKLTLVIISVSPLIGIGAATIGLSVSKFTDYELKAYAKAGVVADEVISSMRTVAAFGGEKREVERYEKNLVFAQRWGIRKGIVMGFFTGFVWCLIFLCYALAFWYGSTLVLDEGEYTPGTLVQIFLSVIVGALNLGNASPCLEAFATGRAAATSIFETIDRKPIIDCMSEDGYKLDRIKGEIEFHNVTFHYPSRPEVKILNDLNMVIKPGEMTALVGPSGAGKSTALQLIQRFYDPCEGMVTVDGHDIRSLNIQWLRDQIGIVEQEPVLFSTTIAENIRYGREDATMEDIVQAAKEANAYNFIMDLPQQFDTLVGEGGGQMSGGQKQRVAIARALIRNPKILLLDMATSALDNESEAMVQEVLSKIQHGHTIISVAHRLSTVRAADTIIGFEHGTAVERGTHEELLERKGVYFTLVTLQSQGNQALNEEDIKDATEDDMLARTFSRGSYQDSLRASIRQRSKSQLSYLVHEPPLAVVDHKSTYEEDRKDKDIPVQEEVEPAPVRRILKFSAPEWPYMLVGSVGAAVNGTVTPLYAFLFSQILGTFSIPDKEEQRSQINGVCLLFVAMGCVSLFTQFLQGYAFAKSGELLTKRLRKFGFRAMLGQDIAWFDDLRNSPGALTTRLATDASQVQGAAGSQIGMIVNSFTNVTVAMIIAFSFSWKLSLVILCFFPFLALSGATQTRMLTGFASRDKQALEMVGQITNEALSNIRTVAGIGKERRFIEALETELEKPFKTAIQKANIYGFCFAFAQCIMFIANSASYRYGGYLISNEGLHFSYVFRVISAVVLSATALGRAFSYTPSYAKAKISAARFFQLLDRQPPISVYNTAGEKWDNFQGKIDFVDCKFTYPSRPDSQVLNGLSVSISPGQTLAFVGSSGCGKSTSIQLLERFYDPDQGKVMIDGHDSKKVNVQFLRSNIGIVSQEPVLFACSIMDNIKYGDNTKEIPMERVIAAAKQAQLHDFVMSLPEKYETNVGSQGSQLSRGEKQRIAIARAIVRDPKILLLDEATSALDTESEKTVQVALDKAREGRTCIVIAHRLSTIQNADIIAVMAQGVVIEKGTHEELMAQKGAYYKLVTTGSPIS

Turning to `NS(=O)(=O)c1cc2c(cc1Cl)NCNS2(=O)=O` [HYDROCHLOROTHIAZIDE], the AC50 (usually the concentration at which the activity in the assay is half-maximal) in experiment [1] is > 10 µM; in experiment [2], > 30 µM; at Bile salt export pump, > 300 µM; on Motilin receptor, > 10 µM; in experiment [3], > 10 µM; in experiment [4], > 10 µM. Further, the AC50 in experiment [5] was > 10 µM; in experiment [6] it was > 10 µM; on Adenosine receptor A1, > 30 µM; in experiment [7] it was > 10 µM; in experiment [8], > 30 µM.

For the compound `CC(C)(C(=O)c1cccnc1)c1cccnc1` [METYRAPONE], the AC50 in [1] is > 30 µM; in experiment [2], > 30 µM; at Bile salt export pump, 280 µM; at Motilin receptor, > 10 µM; in experiment [3] it was > 30 µM; in experiment [4] it was > 10 µM. For the same compound, the AC50 (in [5]; in [6]; at Adenosine receptor A1; in [7]; in [8]) was > 10 µM each time.

Consider `CC(C(=O)O)c1ccc(C(=O)c2cccs2)cc1` (configuration not stated) [SUPROFEN], for which the AC50 in experiment [1] was > 30 µM; in experiment [2] it was > 30 µM; at Bile salt export pump, > 300 µM; on Motilin receptor it was > 10 µM; in [3], > 30 µM; in [4], > 10 µM. Moreover, the AC50 (in experiment [5]; in experiment [6]; on Adenosine receptor A1; in [7]; in [8]) was > 10 µM each time.

In the case of `CCOC(=O)[C@H](CCc1ccccc1)N[C@@H](C)C(=O)N1CCC[C@H]1C(=O)O`, the AC50 in [1] was > 10 µM; in [2] it was > 10 µM; at Bile salt export pump, > 300 µM; at Motilin receptor, > 10 µM; in experiment [3] it was > 10 µM; in [4], > 10 µM. Moreover, the AC50 was > 10 µM in experiment [5]; > 10 µM in experiment [6]; > 30 µM on Adenosine receptor A1; > 10 µM in [7]; > 30 µM in [8].

As for `CS(=O)(=O)c1ccc([C@@H](O)[C@@H](CO)NC(=O)C(Cl)Cl)cc1` [THIAMPHENICOL], the AC50 is > 30 µM in [1]; > 30 µM in experiment [2]; > 300 µM at Bile salt export pump; > 30 µM on Motilin receptor; > 30 µM in experiment [3]; > 30 µM in experiment [4]. In addition, the AC50 (in [5]; in experiment [6]; at Adenosine receptor A1; in experiment [7]; in [8]) was > 30 µM each time.

Consider `CCC[C@@H]1C[C@@H](C(=O)N[C@@H]([C@H]2O[C@H](SC)[C@H](O)[C@@H](O)[C@H]2O)[C@H](C)Cl)N(C)C1` [CLINDAMYCIN], for which the AC50 in [1] was > 30 µM; in [2], > 30 µM; on Bile salt export pump, > 300 µM; on Motilin receptor, > 10 µM; in [3] it was > 30 µM; in experiment [4] it was > 10 µM. Besides, the AC50 in [5] is > 10 µM; in [6], > 10 µM; on Adenosine receptor A1, > 30 µM; in experiment [7], > 10 µM; in [8] it was > 30 µM.

Consider `CCCS(=O)(=O)Nc1ccc(F)c(C(=O)c2c[nH]c3ncc(-c4ccc(Cl)cc4)cc23)c1F` [VEMURAFENIB], for which the AC50 in experiment [1] is > 30 µM; in experiment [2] it was > 30 µM; at Bile salt export pump, 37 µM; on Motilin receptor, > 30 µM; in experiment [3] it was > 30 µM; in [4], > 30 µM. Further, the concentration at half-maximal activity (AC50) (in experiment [5]; in [6]; on Adenosine receptor A1; in [7]; in [8]) was > 30 µM each time.
